This assay has as its system Spontaneously hypertensive rats (SHR). In words: Acute Efficacy in Spontaneously Hypertensive Rats (SHR), telemetry blood pressure. The assay is classed as in vivo, rat. The note with it: for Maximum SBP reduction: dose 0.3 mpk. Put shortly:
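Male SHR with aortic telemetry catheters, 14-day recovery, conscious and freely moving; single oral gavage in 10% transcutol/20% Cremophor/70% water. BP sampled 30 s every 10 min, hourly averages minus prior-day vehicle baseline; value is maximum peak SBP decrease at stated mg/kg PO dose.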

Regarding `Cc1ccc2c(-c3nc(N)c4c(n3)NC(=O)C4(C)C(=O)NC3CCOCC3)nn(CCC(F)(F)C(F)(F)F)c2n1` (stereo not drawn) [Example 239, 4-amino-5-methyl-2-[6-methyl-1-(3,3,4,4,4-pentafluorobutyl)-1H-pyrazolo[3,4-b]pyridin-3-yl]-6-oxo-N-(tetrahydro-2H-pyran-4-yl)-6,7-dihydro-5H-pyrrolo[2,3-d]pyrimidine-5-carboxamide], the “Maximum peak decrease of systolic blood pressure (SBP) in SHR, Category” value (“Maximum peak decrease” for short) (single oral dose 0.3 mpk P.O.) is “A (Category A=SBP in SHRs<25 mmHg)”.
As for `Nc1nc(-c2nn(CCC(F)(F)F)c3ncccc23)nc2c1C(C(=O)NC1CC1)(C1CC1)C(=O)N2` (stereo not drawn) [Example 245, 4-amino-N,5-dicyclopropyl-6-oxo-2-[1-(3,3,3-trifluoropropyl)-1H-pyrazolo[3,4-b]pyridin-3-yl]-6,7-dihydro-5H-pyrrolo[2,3-d]pyrimidine-5-carboxamide], the “Maximum peak decrease” value (single oral dose 0.3 mpk P.O.) was “C (Category C=SBP in SHRs>40 mmHg)”.
In the case of `CC1(c2ccccc2)C(=O)Nc2nc(-c3nc(CCC(F)(F)C(F)(F)F)c4ccccn34)nc(N)c21` (single isomer, unassigned) [Example 190, 4-Amino-5-Methyl-2-[1-(3,3,4,4,4-Pentafluorobutyl)Imidazo[1,5-A]Pyridin-3-yl]-5-Phenyl-5,7-Dihydro-6H-Pyrrolo[2,3-D]Pyrimidin-6-One], the “Maximum peak decrease” value (single oral dose 0.3 mpk P.O.) was “B (Category B=SBP in SHRs 25-40 mmHg)”.
In the case of `CC(C)n1nc(C2(C)C(=O)Nc3nc(-c4nn(CCC(F)(F)C(F)(F)F)c5ccncc45)nc(N)c32)oc1=O` (stereo not drawn) [Example 199, 4-amino-5-methyl-5-[4-(1-methylethyl)-5-oxo-4,5-dihydro-1,3,4-oxadiazol-2-yl]-2-[1-(3,3,4,4,4-pentafluorobutyl)-1H-pyrazolo[3,4-d]pyridin-3-yl]-5,7-dihydro-6H-pyrrolo[2,3-d]pyrimidin-6-one], the “Maximum peak decrease” value (single oral dose 0.3 mpk P.O.) is listed as “B (Category B=SBP in SHRs 25-40 mmHg)”.
With `Cc1nc(C2(C)C(=O)Nc3nc(-c4nn(CCC(F)(F)C(F)(F)F)c5ncccc45)nc(N)c32)sc1C` (stereo not drawn) [Example 206, 4-amino-5-(4,5-dimethyl-1,3-thiazol-2-yl)-5-methyl-2-[1-(3,3,4,4,4-pentafluorobutyl)-1H-pyrazolo[3,4-b]pyridin-3-yl]-5,7-dihydro-6H-pyrrolo[2,3-d]pyrimidin-6-one], where the note is “single oral dose 0.3 mpk P.O.”, the “Maximum peak decrease” value is recorded as “C (Category C=SBP in SHRs>40 mmHg)”.
In the case of `CC1(C(=O)NC2CC2)C(=O)Nc2nc(-c3nn(CCC(F)(F)F)c4nc(C#N)ccc34)nc(N)c21` (stereo not drawn) [Example 221, 4-amino-2-[6-cyano-1-(3,3,3-trifluoropropyl)-1H-pyrazolo[3,4-b]pyridin-3-yl]-N-cyclopropyl-5-methyl-6-oxo-6,7-dihydro-5H-pyrrolo[2,3-d]pyrimidine-5-carboxamide], the “Maximum peak decrease” value (single oral dose 1 mpk P.O.) is reported as “C (Category C=SBP in SHRs>40 mmHg)”.
Regarding `Cc1ccc2c(-c3nc(N)c4c(n3)NC(=O)C4(C)C(=O)NC3CC3)nn(CCC(F)(F)F)c2n1` (stereo not drawn) [Example 184, 4-Amino-N-Cyclopropyll-5-Methyl-2-[6-Methyl-1-(3,3,3-Trifluoropropyl)-1H-Pyrazolo[3,4-B]Pyridin-3-yl]-6-Oxo-6,7-Dihydro-5H-Pyrrolo[2,3-D]Pyrimidine-5-Carboxamide], the “Maximum SBP reduction” value was 19 ± 5 mmHg. Under “single oral dose 0.3 mpk P.O.”, the “Maximum peak decrease” value is given as “A (Category A=SBP in SHRs<25 mmHg)”.
With `CNc1nc(-c2nn(CCC(F)(F)C(F)(F)F)c3ncccc23)nc2c1C(C)(C(=O)NC1CC1)C(=O)N2` (stereo not drawn) [Example 187, N-Cyclopropyl-5-Methyl-4-(Methylamino)-6-Oxo-2-[1-(3,3,4,4,4-Pentafluorobutyl)-1H-Pyrazolo[3,4-B]Pyridin-3-yl]-6,7-Dihydro-5H-Pyrrolo[2,3-D]Pyrimidine-5-Carboxamide], the “Maximum peak decrease” value (single oral dose 0.3 mpk P.O.) is on record as “B (Category B=SBP in SHRs 25-40 mmHg)”.
Still for that read-out and setting: under `CNc1nc(-c2nc(CCC(F)(F)C(F)(F)F)n3ncccc23)nc2c1C(C)(C(=O)NC1CC1)C(=O)N2` (stereo not drawn) [Example 260, N-cyclopropyl-5-methyl-4-(methylamino)-6-oxo-2-[7-(3,3,4,4,4-pentafluorobutyl)imidazo[1,5-b]pyridazin-5-yl]-6,7-dihydro-5H-pyrrolo[2,3-d]pyrimidine-5-carboxamide] stands “B (Category B=SBP in SHRs 25-40 mmHg)”; under `CC1(C(=O)NC2CCOC2)C(=O)Nc2nc(-c3nn(CCC(F)(F)C(F)(F)F)c4ncccc34)nc(N)c21` (stereo not drawn) [Example 235, 4-amino-5-methyl-6-oxo-2-[1-(3,3,4,4,4-pentafluorobutyl)-1H-pyrazolo[3,4-b]pyridin-3-yl]-N-(tetrahydrofuran-3-yl)-6,7-dihydro-5H-pyrrolo[2,3-d]pyrimidine-5-carboxamide], “B (Category B=SBP in SHRs 25-40 mmHg)”.
On to `CCn1cc(C2(C)C(=O)Nc3nc(-c4nn(CCC(F)(F)C(F)(F)F)c5ncccc45)nc(N)c32)nn1` (stereo not drawn) [Example 173, 4-Amino-5-(1-Ethyl-1H-1,2,3-Triazol-4-yl)-5-Methyl-2-[1-(3,3,4,4,4-Pentafluorobutyl)-1H-Pyrazolo[3,4-B]Pyridin-3-yl]-5,7-Dihydro-6H-Pyrrolo[2,3-D]Pyrimidin-6-One], for which the “Maximum SBP reduction” value is 66 ± 6 mmHg. Also, the “Maximum peak decrease” value (single oral dose 0.3 mpk P.O.) is recorded as “C (Category C=SBP in SHRs>40 mmHg)”.
Consider `CNC(=O)C1(C)C(=O)Nc2nc(-c3nn(CCC(F)(F)C(F)(F)F)c4ncccc34)nc(NC)c21` (stereo not drawn) [Example 259, N,5-dimethyl-4-(methylamino)-6-oxo-2-[1-(3,3,4,4,4-pentafluorobutyl)-1H-pyrazolo[3,4-b]pyridin-3-yl]-6,7-dihydro-5H-pyrrolo[2,3-d]pyrimidine-5-carboxamide], for which the “Maximum peak decrease” value (single oral dose 0.3 mpk P.O.) is reported as “A (Category A=SBP in SHRs<25 mmHg)”.
With `CNc1nc(-c2nn(CCC(F)(F)F)c3ncccc23)nc2c1C(C)(C(=O)NC1CC1)C(=O)N2` (stereo not drawn) [Example 263, N-cyclopropyl-5-methyl-4-(methylamino)-6-oxo-2-[1-(3,3,3-trifluoropropyl)-1H-pyrazolo[3,4-b]pyridin-3-yl]-6,7-dihydro-5H-pyrrolo[2,3-d]pyrimidine-5-carboxamide], the “Maximum peak decrease” value (single oral dose 0.3 mpk P.O.) was “A (Category A=SBP in SHRs<25 mmHg)”.

Source of the values: US9365574B2, “Soluble guanylate cyclase activators” (Merck Sharp & Dohme Corp., priority 2010, dated 2016).
